# Reference: patent US20100298252A1, “METHODS AND COMPOSITIONS FOR OPHTHALMIC TREATMENT OF FUNGAL AND BACTERIAL INFECTIONS” (priority 2004, published 2010)
# What was measured:
# Enterococcus faecalis [1] = assay: MIC and FIC index, microtiter checkerboard / broth dilution; type: cell-based; settings: Ent. faecalis; for MIC Individually Administered, antibiotic: antibiotic alone
# Protocol: (§1) Agents and Chem. 210-217. (1967) and Sparks et al., Vet. Res. Comm. 18, 241-249 (1994), incorporated herein by reference in their entireties. […] Then 0.05 ml of an 18-hour old culture of a test organism, containing 10^6 colony-forming units (CFU)/ml, was added to each well. Controls for the culture and media were included in each plate. Plates were covered and incubated at 37° Celsius for 18-24 hours. […] To generate isobolograms, FICs of the two test solutions were plotted individually on the x-axis and y-axis to determine the effect of combining the two test solutions on bacterial growth. A line that curves away from, the zero point and the coordinates indicates antagonism. […] A numerical score or fractional inhibitory concentration (FIC) index was determined. The FIC index is equal to the sum of the values of FIC for the individual drugs: […] Am. Soc. Microbiol. Williams and Wilkins, Baltimore 1970), incorporated herein by reference in its entirety. […] Ps. aeruginosa, and Ent. faecalis.
# Pseudomonas aeruginosa [2] = assay: as above; type: cell-based; settings: Ps. aeruginosa; for MIC Individually Administered, antibiotic: antibiotic alone
# Protocol: as §1
# Staphylococcus aureus [3] = assay: as above; type: cell-based; settings: Staph. aureus; for MIC Individually Administered, antibiotic: antibiotic alone
# Protocol: as §1
# Enterococcus faecalis [4] = assay: Antibiotic resistance profile by disc diffusion; type: cell-based; set-up: key: R = resistant; I = intermediate; S = sensitive; settings: disc diffusion on MHA
# Protocol: (§2) The organisms of this study were isolated from human burn patients. They included strains of methicillin resistant Staphylococcus aureus, and vancomycin resistant strains of Pseudomonas aeruginosa and Enterococcus faecalis. The bacterial isolates were propagated in or on Brain Heart Infusion broth (BHI), Mueller-Hinton Broth (MHB), blood agar (BA), Mueller-Hinton agar (MHA), enterococcus agar (EA), or 2× nutrient agar (2×NA).
# (§3) Antibiotic resistance profiles were determined by the disc diffusion method on MHA (5).
# Pseudomonas aeruginosa [5] = assay: Antibiotic resistance profile by disc diffusion; type: cell-based; set-up: key: R = resistant; I = intermediate; S = sensitive; settings: disc diffusion on MHA
# Protocol: as §2, §3
# Staphylococcus aureus [6] = assay: Antibiotic resistance profile by disc diffusion; type: cell-based; set-up: key: R = resistant; I = intermediate; S = sensitive; settings: disc diffusion on MHA
# Protocol: as §2, §3
# [7] = system: Candidia albicans ATCC 90028; assay: Antifungal MIC 50 / MIC 90 alone and combined with Tricide; type: cell-based, Candida albicans;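 note: MIC 50 and MIC 90 values are means, and the percent decrease is the drop in MIC when the antifungal is combined with Tricide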
# [8] = system: Paecilomyces variotti ATCC 36257; assay: as above; type: cell-based
# Aspergillus sp. = assay: as above; type: cell-based; settings: for % decrease MIC 50 / % decrease MIC 90 / MIC 50 combined with Tricide / MIC 90 combined with Tricide: Aspergillus sp.
# Fusarium sp. 1 = assay: microbe, parasite or virus in culture; type: cell-based;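 note: mean MIC 50 and MIC 90 values against fungal isolates, with percent decrease in MIC when the antifungal is combined with Tricide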
# Fusarium sp. 2 = assay: microbe, parasite or virus in culture; type: cell-based
# Fusarium sp. 3 = assay: microbe, parasite or virus in culture; type: cell-based
# Penicillium sp. = assay: Antifungal MIC 50 / MIC 90 alone and combined with Tricide; type: cell-based
# Cladosporium sp. = assay: as above; type: cell-based; settings: antifungal alone
# Curvularia sp. = assay: as above; type: cell-based;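 note: antifungal MIC 50 and MIC 90 values against fungal isolates, with percent figures expressing how much the MIC fell once Tricide was added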
# [9] = Candida albicans, ATCC90028, Candidia albicans ATCC 90028, antifungal alone
# [10] = Paecilomyces variotti ATCC36257
# [11] = Paecilomyces variotti, Tricide […]
# [12] = Aspergillus, Aspergiullus sp., antifungal alone
# [13] = Fusarium sp. 1, Tricide 540 ug/ml
# [14] = Fusarium sp. 1, antifungal alone
# [15] = Curvilaria sp., Tricide 200 ug/ml
# [16] = Curvularia sp., antifungal alone
compound,measurement,setting,value
"NCC[C@H](O)C(=O)N[C@@H]1C[C@H](N)[C@@H](O[C@H]2O[C@H](CN)[C@@H](O)[C@H](O)[C@H]2O)[C@H](O)[C@H]1O[C@H]1O[C@H](CO)[C@@H](O)[C@H](N)[C@H]1O [Amikacin, amikacin]","MIC Individually Administered, antibiotic",Enterococcus faecalis [1],2000 µg/mL
same,"MIC Individually Administered, antibiotic",Pseudomonas aeruginosa [2],1 µg/mL
same,"MIC Individually Administered, antibiotic",Staphylococcus aureus [3],120 µg/mL
"CC1(C)S[C@@H]2[C@H](NC(=O)[C@H](N)c3ccccc3)C(=O)N2[C@H]1C(=O)O [Ampicillin, ampicillin]",Antibiotic resistance profile,Enterococcus faecalis [4],S
same,Antibiotic resistance profile,Pseudomonas aeruginosa [5],R
same,Antibiotic resistance profile,Staphylococcus aureus [6],R^B
same,"MIC Individually Administered, antibiotic",Enterococcus faecalis [1],1 µg/mL
same,"MIC Individually Administered, antibiotic",Pseudomonas aeruginosa [2],490 µg/mL
same,"MIC Individually Administered, antibiotic",Staphylococcus aureus [3],240 µg/mL
"O=C(N[C@H](CO)[C@H](O)c1ccc([N+](=O)[O-])cc1)C(Cl)Cl [Chloramphenicol, chloramphenicol]",Antibiotic resistance profile,Enterococcus faecalis [4],R
same,Antibiotic resistance profile,Pseudomonas aeruginosa [5],R
same,Antibiotic resistance profile,Staphylococcus aureus [6],I
same,"MIC Individually Administered, antibiotic",Enterococcus faecalis [1],400 µg/mL
same,"MIC Individually Administered, antibiotic",Pseudomonas aeruginosa [2],12500 µg/mL
same,"MIC Individually Administered, antibiotic",Staphylococcus aureus [3],390 µg/mL
"O=C(O)CN(CCN(CC(=O)O)CC(=O)O)CC(=O)O [EDTA, ethylenediamenetetracetic acid]","MIC Individually Administered, EDTA",Enterococcus faecalis [1]; EDTA alone in 50 mM Tris,15630 µM
same,"MIC Individually Administered, EDTA",Pseudomonas aeruginosa [2]; EDTA alone in 50 mM Tris,1250 µM
same,"MIC Individually Administered, EDTA",Staphylococcus aureus [3]; EDTA alone in 50 mM Tris,1000 µM
"Cc1noc(NS(=O)(=O)c2ccc(N)cc2)c1C [G, sulfisoxazole]",Antibiotic resistance profile,Enterococcus faecalis [4],R
same,Antibiotic resistance profile,Pseudomonas aeruginosa [5],R
same,Antibiotic resistance profile,Staphylococcus aureus [6],S
"NC[C@H]1O[C@H](O[C@H]2[C@H](O)[C@@H](O[C@H]3O[C@H](CO)[C@@H](O)[C@H](N)[C@H]3O)[C@H](N)C[C@@H]2N)[C@H](O)[C@@H](O)[C@@H]1O [K, kanamycin]",Antibiotic resistance profile,Enterococcus faecalis [4],R
same,Antibiotic resistance profile,Pseudomonas aeruginosa [5],R
same,Antibiotic resistance profile,Staphylococcus aureus [6],R
"CCn1cc(C(=O)O)c(=O)c2ccc(C)nc21 [NA, nalidixic acid]",Antibiotic resistance profile,Enterococcus faecalis [4],R
same,Antibiotic resistance profile,Pseudomonas aeruginosa [5],R
same,Antibiotic resistance profile,Staphylococcus aureus [6],R
"C[C@@H]1C/C=C/C=C/C=C/C=C/[C@H](O[C@@H]2O[C@H](C)[C@@H](O)[C@H](N)[C@@H]2O)C[C@@H]2O[C@](O)(C[C@@H](O)C[C@H]3O[C@@H]3/C=C/C(=O)O1)C[C@H](O)[C@H]2C(=O)O [Natamycin, natamycin]",MIC50,[7]; [9],> 14.4 µg/mL
same,MIC90,[7]; [9],> 19.2 µg/mL
same,% decrease MIC 50,"[7]; Candida albicans, Tricide […]",99.3%
same,% decrease MIC 90,"[7]; Candida albicans, Tricide […]",90%
same,MIC 50 combined with Tricide,"[7]; Candida albicans, Tricide […]",≦0.10 ug/ml
same,MIC 90 combined with Tricide,"[7]; Candida albicans, Tricide […]",4.92 µg/mL
same,Summary % reduction in MIC 50 using Tricide,[7]; Candidia albicans ATCC 90028,99.3%
same,Summary % reduction in MIC 90 using Tricide,[7]; Candidia albicans ATCC 90028,90%
same,MIC50,"[8]; ATCC36257, Paecilomyces variotti ATCC 36257, antifungal alone, read-out: MIC 50",2.4 to 4.8 µg/mL
same,MIC90,"[8]; ATCC36257, Paecilomyces variotti ATCC 36257, antifungal alone, read-out: MIC 90",9.6 µg/mL
same,Summary % reduction in MIC 50 using Tricide,[8]; [10],75-87.5%^
same,Summary % reduction in MIC 90 using Tricide,[8]; [10],50%
same,% decrease MIC 50,[8]; [11],75%-87.5%
same,% decrease MIC 90,[8]; [11],50%
same,MIC 50 combined with Tricide,[8]; [11],0.6 µg/mL
same,MIC 90 combined with Tricide,[8]; [11],4.8 µg/mL
same,% decrease MIC 50,Aspergillus sp.; Tricide 200 ug/ml,93.8%
same,% decrease MIC 90,Aspergillus sp.; Tricide 200 ug/ml,0%
same,MIC 50 combined with Tricide,Aspergillus sp.; Tricide 200 ug/ml,1.2 µg/mL
same,MIC 90 combined with Tricide,Aspergillus sp.; Tricide 200 ug/ml,>19.2 µg/mL
same,% decrease MIC 50,Aspergillus sp.; Tricide 400 ug/ml,100%
same,% decrease MIC 90,Aspergillus sp.; Tricide 400 ug/ml,100%
same,MIC 50 combined with Tricide,Aspergillus sp.; Tricide 400 ug/ml,0 µg/mL
same,MIC 90 combined with Tricide,Aspergillus sp.; Tricide 400 ug/ml,0 µg/mL
same,MIC50,Aspergillus sp.; [12],> 19.2 µg/mL
same,MIC90,Aspergillus sp.; [12],19.2 µg/mL
same,Summary % reduction in MIC 50 using Tricide,Aspergillus sp.; Aspergiullus sp.,100%
same,Summary % reduction in MIC 90 using Tricide,Aspergillus sp.; Aspergiullus sp.,100%
same,Summary % reduction in MIC 50 using Tricide,Fusarium sp. 1; Fasarium sp. 1,100%
same,Summary % reduction in MIC 90 using Tricide,Fusarium sp. 1; Fasarium sp. 1,100%
same,% decrease MIC 50,Fusarium sp. 1; [13],100%
same,% decrease MIC 90,Fusarium sp. 1; [13],100%
same,MIC 50 combined with Tricide,Fusarium sp. 1; [13],0 µg/mL
same,MIC 90 combined with Tricide,Fusarium sp. 1; [13],0 µg/mL
same,MIC50,Fusarium sp. 1; [14],> 19.2 µg/mL
same,MIC90,Fusarium sp. 1; [14],> 19.2 µg/mL
same,Summary % reduction in MIC 50 using Tricide,Fusarium sp. 2,100%
same,Summary % reduction in MIC 90 using Tricide,Fusarium sp. 2,>99%-100%
same,% decrease MIC 50,Fusarium sp. 2; Tricide 540 ug/ml,100%
same,% decrease MIC 90,Fusarium sp. 2; Tricide 540 ug/ml,>99-100% ^
same,MIC 50 combined with Tricide,Fusarium sp. 2; Tricide 540 ug/ml,0 µg/mL
same,MIC 90 combined with Tricide,Fusarium sp. 2; Tricide 540 ug/ml,0 to 1.92 µg/mL
same,MIC50,Fusarium sp. 2; antifungal alone,> 19.2 µg/mL
same,MIC90,Fusarium sp. 2; antifungal alone,> 19.2 µg/mL
same,Summary % reduction in MIC 50 using Tricide,Fusarium sp. 3,100%
same,Summary % reduction in MIC 90 using Tricide,Fusarium sp. 3,100%
same,% decrease MIC 50,Fusarium sp. 3; Tricide 540 ug/ml,100%
same,% decrease MIC 90,Fusarium sp. 3; Tricide 540 ug/ml,100%
same,MIC 50 combined with Tricide,Fusarium sp. 3; Tricide 540 ug/ml,0 µg/mL
same,MIC 90 combined with Tricide,Fusarium sp. 3; Tricide 540 ug/ml,0 µg/mL
same,MIC50,Fusarium sp. 3; antifungal alone,> 19.2 µg/mL
same,MIC90,Fusarium sp. 3; antifungal alone,> 19.2 µg/mL
same,Summary % reduction in MIC 50 using Tricide,Penicillium sp.,100%
same,Summary % reduction in MIC 90 using Tricide,Penicillium sp.,100%
same,% decrease MIC 50,Penicillium sp.; Tricide 200 ug/ml,100%
same,% decrease MIC 90,Penicillium sp.; Tricide 200 ug/ml,100%
same,MIC 50 combined with Tricide,Penicillium sp.; Tricide 200 ug/ml,0 µg/mL
same,MIC 90 combined with Tricide,Penicillium sp.; Tricide 200 ug/ml,0 µg/mL
same,MIC50,Penicillium sp.; antifungal alone,9.6 µg/mL
same,MIC90,Penicillium sp.; antifungal alone,19.2 µg/mL
same,MIC50,Cladosporium sp.,> 19.2 µg/mL
same,MIC90,Cladosporium sp.,> 19.2 µg/mL
same,% decrease MIC 50,Curvularia sp.; [15],100%
same,% decrease MIC 90,Curvularia sp.; [15],100%
same,MIC 50 combined with Tricide,Curvularia sp.; [15],0 µg/mL
same,Summary % reduction in MIC 50 using Tricide,Curvularia sp.; Curvularia sp.,100%
same,Summary % reduction in MIC 90 using Tricide,Curvularia sp.; Curvularia sp.,100%
same,MIC50,Curvularia sp.; [16],9.6 µg/mL
same,MIC90,Curvularia sp.; [16],19.2 µg/mL
"CN(C)[C@@H]1C(O)=C(C(N)=O)C(=O)[C@@]2(O)C(O)=C3C(=O)c4c(O)cccc4[C@@](C)(O)[C@H]3[C@H](O)[C@@H]12 [Oxytetracycline, oxytetracycline]","MIC Individually Administered, antibiotic",Enterococcus faecalis [1],50 µg/mL
same,"MIC Individually Administered, antibiotic",Pseudomonas aeruginosa [2],3 µg/mL
same,"MIC Individually Administered, antibiotic",Staphylococcus aureus [3],0.1 µg/mL
"[H]/N=C(/N)N[C@H]1[C@H](O)[C@@H](O)[C@H](O[C@@H]2O[C@@H](C)[C@](O)(C=O)[C@H]2O[C@@H]2O[C@@H](CO)[C@H](O)[C@@H](O)[C@@H]2NC)[C@@H](N/C(N)=N\[H])[C@@H]1O [S, streptomycin]",Antibiotic resistance profile,Enterococcus faecalis [4],R
same,Antibiotic resistance profile,Pseudomonas aeruginosa [5],R
same,Antibiotic resistance profile,Staphylococcus aureus [6],S
"CN(C)[C@@H]1C(O)=C(C(N)=O)C(=O)[C@@]2(O)C(O)=C3C(=O)c4c(O)cccc4[C@@](C)(O)[C@H]3C[C@@H]12 [Te, tetracycline]",Antibiotic resistance profile,Enterococcus faecalis [4],R
same,Antibiotic resistance profile,Pseudomonas aeruginosa [5],R
same,Antibiotic resistance profile,Staphylococcus aureus [6],S
"CN[C@H](CC(C)C)C(=O)N[C@H]1C(=O)N[C@@H](CC(N)=O)C(=O)N[C@H]2C(=O)N[C@H]3C(=O)N[C@H](C(=O)N[C@H](C(=O)O)c4cc(O)cc(O)c4-c4cc3ccc4O)[C@H](O)c3ccc(c(Cl)c3)Oc3cc2cc(c3O[C@@H]2O[C@H](CO)[C@@H](O)[C@H](O)[C@H]2O[C@H]2C[C@](C)(N)[C@H](O)[C@H](C)O2)Oc2ccc(cc2Cl)[C@H]1O [Va, vancomycin]",Antibiotic resistance profile,Enterococcus faecalis [4],R
same,Antibiotic resistance profile,Pseudomonas aeruginosa [5],R
same,Antibiotic resistance profile,Staphylococcus aureus [6],S
gentamicin [Gm],Antibiotic resistance profile,Enterococcus faecalis [4],R
same,Antibiotic resistance profile,Pseudomonas aeruginosa [5],I
same,Antibiotic resistance profile,Staphylococcus aureus [6],S
